Measurements published in ChEMBL document CHEMBL1201861, “Genomics of Drug Sensitity in Cancer screening data, Wellcome Trust Sanger Institute”.

What was measured:
Assay in all cases: cells
[1] = system: KARPAS-299; assay type: functional, cell-based, Homo sapiens; details: Homo sapiens, KARPAS-299
Description: SANGER: Inhibition of human KARPAS-299 cell growth in a cell viability assay.

[2] = system: SW 962; assay type: functional, cell-based, Homo sapiens; details: Homo sapiens, SW 962;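 also: growth inhibition of human SW962 cells, read out by a cell viability assay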
Description: SANGER: Inhibition of human SW962 cell growth in a cell viability assay.

[3] = system: CP66-MEL; assay type: functional, cell-based, Homo sapiens; details: Homo sapiens, CP66-MEL;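 also: growth inhibition of CP66-MEL cells determined in a cell viability assay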
Description: SANGER: Inhibition of human CP66-MEL cell growth in a cell viability assay.

[4] = system: SW 954; assay type: functional, cell-based, Homo sapiens; details: Homo sapiens, SW 954;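 also: growth inhibition of SW954 human cancer cells, read out as cell viability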
Description: SANGER: Inhibition of human SW954 cell growth in a cell viability assay.

[5] = system: VA-ES-BJ; assay type: functional, cell-based, Homo sapiens; details: Homo sapiens, VA-ES-BJ;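 also: growth inhibition of the VA-ES-BJ cell line, read out by a cell viability assay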
Description: SANGER: Inhibition of human VA-ES-BJ cell growth in a cell viability assay.

[6] = system: CAS-1; assay type: functional, cell-based, Homo sapiens; details: Homo sapiens, CAS-1;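 also: growth inhibition of CAS-1 cells, measured with a cell viability assay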
Description: SANGER: Inhibition of human CAS-1 cell growth in a cell viability assay.

[7] = system: SH-4; assay type: functional, cell-based, Homo sapiens; details: Homo sapiens, SH-4;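 also: growth inhibition of SH-4 cells, read out with a cell viability assay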
Description: SANGER: Inhibition of human SH-4 cell growth in a cell viability assay.

[8] = system: BT-474; assay type: functional, cell-based, Homo sapiens; details: Homo sapiens, BT-474
Description: SANGER: Inhibition of human BT-474 cell growth in a cell viability assay.

[9] = system: ALL-PO; assay type: functional, cell-based, Homo sapiens; details: Homo sapiens, ALL-PO;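 also: growth inhibition of ALL-PO cells, read out by a cell viability assay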
Description: SANGER: Inhibition of human ALL-PO cell growth in a cell viability assay.

[10] = system: COLO-684; assay type: functional, cell-based, Homo sapiens; details: Homo sapiens, COLO-684
Description: SANGER: Inhibition of human COLO-684 cell growth in a cell viability assay.

[11] = system: NCI-H1395; assay type: functional, cell-based, Homo sapiens; details: Homo sapiens, NCI-H1395;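 also: cell viability assay read-out quantifying reduced proliferation of human NCI-H1395 cells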
Description: SANGER: Inhibition of human NCI-H1395 cell growth in a cell viability assay.

[12] = system: SK-N-DZ; assay type: functional, cell-based, Homo sapiens; details: Homo sapiens, SK-N-DZ;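 also: growth inhibition of the cancer cell line, read out through a viability assay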
Description: SANGER: Inhibition of human SK-N-DZ cell growth in a cell viability assay.

[13] = system: UACC-257; assay type: functional, cell-based, Homo sapiens; details: Homo sapiens, UACC-257
Description: SANGER: Inhibition of human UACC-257 cell growth in a cell viability assay.

[14] = system: MV4-11; assay type: functional, cell-based, Homo sapiens, MV-4-11; details: Homo sapiens, MV4-11;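 also: cell viability readout measuring growth inhibition of human MV-4-11 cells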
Description: SANGER: Inhibition of human MV-4-11 cell growth in a cell viability assay.

[15] = system: ACN; assay type: functional, cell-based, Homo sapiens; details: Homo sapiens, ACN;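 also: growth inhibition of the human ACN cell line, read out via cell viability testing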
Description: SANGER: Inhibition of human ACN cell growth in a cell viability assay.

[16] = system: NOS-1; assay type: functional, cell-based, Homo sapiens; details: Homo sapiens, NOS-1;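 also: growth inhibition of the human NOS-1 cell line, read out with a cell viability assay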
Description: SANGER: Inhibition of human NOS-1 cell growth in a cell viability assay.

[17] = system: NCI-H1304; assay type: functional, cell-based, Homo sapiens; details: Homo sapiens, NCI-H1304;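 also: growth inhibition of the cancer cell line, measured in a cell viability assay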
Description: SANGER: Inhibition of human NCI-H1304 cell growth in a cell viability assay.

[18] = system: LB2241-RCC; assay type: functional, cell-based, Homo sapiens; details: Homo sapiens, LB2241-RCC;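 also: cell viability assay measuring how strongly the cultured human renal carcinoma line is prevented from growing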
Description: SANGER: Inhibition of human LB2241-RCC cell growth in a cell viability assay.

[19] = system: HuTu80; assay type: functional, cell-based, Homo sapiens, HUTU-80; details: Homo sapiens, HuTu80;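 also: growth inhibition of HuTu80 human cells, determined with a cell viability readout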
Description: SANGER: Inhibition of human HUTU-80 cell growth in a cell viability assay.

[20] = system: NCI-H1155; assay type: functional, cell-based, Homo sapiens; details: Homo sapiens, NCI-H1155;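 also: cell growth inhibition measured by a viability assay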
Description: SANGER: Inhibition of human NCI-H1155 cell growth in a cell viability assay.

[21] = system: TE-8; assay type: functional, cell-based, Homo sapiens; details: Homo sapiens, TE-8;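 also: growth inhibition of TE-8 cells, measured with a cell viability readout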
Description: SANGER: Inhibition of human TE-8 cell growth in a cell viability assay.

[22] = system: NKM-1; assay type: functional, cell-based, Homo sapiens; details: Homo sapiens, NKM-1;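 also: growth inhibition of NKM-1 cells, read out with a cell viability assay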
Description: SANGER: Inhibition of human NKM-1 cell growth in a cell viability assay.

[23] = system: TGBC24TKB; assay type: functional, cell-based, Homo sapiens; details: Homo sapiens, TGBC24TKB;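 also: growth inhibition of human TGBC24TKB cells, read out with a cell viability assay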
Description: SANGER: Inhibition of human TGBC24TKB cell growth in a cell viability assay.

[24] = system: MHH-PREB-1; assay type: functional, cell-based, Homo sapiens; details: Homo sapiens, MHH-PREB-1;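 also: cell viability assay measuring inhibition of proliferation of human MHH-PREB-1 cells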
Description: SANGER: Inhibition of human MHH-PREB-1 cell growth in a cell viability assay.

[25] = system: MZ7-mel; assay type: functional, cell-based, Homo sapiens; details: Homo sapiens, MZ7-mel;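 also: growth inhibition of human MZ7-mel cells, measured by a cell viability assay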
Description: SANGER: Inhibition of human MZ7-mel cell growth in a cell viability assay.

[26] = system: NB12; assay type: functional, cell-based, Homo sapiens; details: Homo sapiens, NB12;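 also: growth inhibition of human NB12 cells, read out by a cell viability assay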
Description: SANGER: Inhibition of human NB12 cell growth in a cell viability assay.

[27] = system: LB831-BLC; assay type: functional, cell-based, Homo sapiens; details: Homo sapiens, LB831-BLC;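 also: growth inhibition of LB831-BLC cells, read out with a cell viability assay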
Description: SANGER: Inhibition of human LB831-BLC cell growth in a cell viability assay.

[28] = system: GI-ME-N; assay type: functional, cell-based, Homo sapiens; details: Homo sapiens, GI-ME-N;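 also: growth inhibition of human GI-ME-N cells, read out with a cell viability assay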
Description: SANGER: Inhibition of human GI-ME-N cell growth in a cell viability assay.

[29] = system: NTERA-2-cl-D1; assay type: functional, cell-based, Homo sapiens; details: Homo sapiens, NTERA-2-cl-D1;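 also: inhibition of cell growth, measured with a cell viability assay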
Description: SANGER: Inhibition of human NTERA-S-cl-D1 cell growth in a cell viability assay.

[30] = system: TE-1; assay type: functional, cell-based, Homo sapiens; details: Homo sapiens, TE-1;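 also: growth inhibition of the human TE-1 cell line, read out with a cell viability assay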
Description: SANGER: Inhibition of human TE-1 cell growth in a cell viability assay.

[31] = system: NMC-G1; assay type: functional, cell-based, Homo sapiens; details: Homo sapiens, NMC-G1;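 also: growth inhibition of the NMC-G1 cell line, measured with a cell viability read-out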
Description: SANGER: Inhibition of human NMC-G1 cell growth in a cell viability assay.

[32] = system: KS-1; assay type: functional, cell-based, Homo sapiens; details: Homo sapiens, KS-1;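 also: growth inhibition of KS-1 cells, read out with a cell viability assay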
Description: SANGER: Inhibition of human KS-1 cell growth in a cell viability assay.

[33] = system: HDLM-2; assay type: functional, cell-based, Homo sapiens; details: Homo sapiens, HDLM-2;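 also: cell viability assay measuring suppression of HDLM-2 proliferation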
Description: SANGER: Inhibition of human HDLM-2 cell growth in a cell viability assay.

[34] = system: D-263MG; assay type: functional, cell-based, Homo sapiens; details: Homo sapiens, D-263MG
Description: SANGER: Inhibition of human D-263MG cell growth in a cell viability assay.

[35] = system: SK-NEP-1; assay type: functional, cell-based, Homo sapiens; details: Homo sapiens, SK-NEP-1;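 also: growth inhibition of human SK-NEP-1 cells, read out by a cell viability assay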
Description: SANGER: Inhibition of human SK-NEP-1 cell growth in a cell viability assay.

[36] = system: EM-2; assay type: functional, cell-based, Homo sapiens; details: Homo sapiens, EM-2;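 also: growth inhibition of EM-2 cells, read out with a cell viability assay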
Description: SANGER: Inhibition of human EM-2 cell growth in a cell viability assay.

[37] = system: SNU-5; assay type: functional, cell-based, Homo sapiens; details: Homo sapiens, SNU-5;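 also: cell viability readout used to measure growth inhibition in human NCI-SNU-5 cells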
Description: SANGER: Inhibition of human NCI-SNU-5 cell growth in a cell viability assay.

[38] = system: RS4-11; assay type: functional, cell-based, Homo sapiens; details: Homo sapiens, RS4-11;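 also: growth inhibition of RS4-11 cells, read out by a cell viability assay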
Description: SANGER: Inhibition of human RS4-11 cell growth in a cell viability assay.

[39] = system: TE-6; assay type: functional, cell-based, Homo sapiens; details: Homo sapiens, TE-6;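 also: growth inhibition of TE-6 cells, read out with a cell viability assay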
Description: SANGER: Inhibition of human TE-6 cell growth in a cell viability assay.

[40] = system: JVM-2; assay type: functional, cell-based, Homo sapiens; details: Homo sapiens, JVM-2;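 also: growth inhibition of JVM-2 cells determined by a cell viability assay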
Description: SANGER: Inhibition of human JVM-2 cell growth in a cell viability assay.

[41] = system: no-11; assay type: functional, cell-based, Homo sapiens; details: Homo sapiens;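 also: growth inhibition of human NO-11 cells, read out with a cell viability assay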
Description: SANGER: Inhibition of human no-11 cell growth in a cell viability assay.

[42] = system: OCI-AML2; assay type: functional, cell-based, Homo sapiens; details: Homo sapiens, OCI-AML2;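 also: growth inhibition of OCI-AML2 cells, read out with a cell viability assay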
Description: SANGER: Inhibition of human OCI-AML2 cell growth in a cell viability assay.

[43] = system: 697; assay type: functional, cell-based, Homo sapiens; details: Homo sapiens
Description: SANGER: Inhibition of human 697 cell growth in a cell viability assay.

[44] = system: MSTO-211H; assay type: functional, cell-based, Homo sapiens; details: Homo sapiens, MSTO-211H
Description: SANGER: Inhibition of human MSTO-211H cell growth in a cell viability assay.

[45] = system: MEG-01; assay type: functional, cell-based, Homo sapiens; details: Homo sapiens, MEG-01;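 also: growth inhibition of MEG-01 cells, read out by a cell viability assay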
Description: SANGER: Inhibition of human MEG-01 cell growth in a cell viability assay.

[46] = system: MOLT-4; assay type: functional, cell-based, Homo sapiens; details: Homo sapiens, MOLT-4;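 also: growth inhibition of MOLT-4 cells, determined with a cell viability readout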
Description: SANGER: Inhibition of human MOLT-4 cell growth in a cell viability assay.

[47] = system: DU-4475; assay type: functional, cell-based, Homo sapiens; details: Homo sapiens, DU-4475
Description: SANGER: Inhibition of human DU-4475 cell growth in a cell viability assay.

`CS(=O)(=O)c1ccc(C(=O)Nc2ccc(Cl)c(-c3ccccn3)c2)c(Cl)c1` [VISMODEGIB] was tested, and the IC50 [1] was over 10000 nM, the IC50 [2] was over 10000 nM and the IC50 [3] was over 10000 nM. For the same molecule, the IC50 [4] was over 10000 nM, the IC50 [5] was over 10000 nM and the IC50 [6] was over 10000 nM. For the same molecule, the IC50 [7] was over 10000 nM, the IC50 [8] was over 10000 nM and the IC50 [9] was over 10000 nM. It also gave an IC50 [10] of over 10000 nM, an IC50 [11] of over 10000 nM and an IC50 [12] of over 10000 nM. It also gave an IC50 [13] of over 10000 nM, an IC50 [14] of over 10000 nM and an IC50 [15] of 8500 nM. The IC50 [16] was over 10000 nM, the IC50 [17] was over 10000 nM and the IC50 [18] was over 10000 nM. The IC50 [19] was over 10000 nM, the IC50 [20] was over 10000 nM and the IC50 [21] was over 10000 nM. It also gave an IC50 [22] of over 10000 nM, an IC50 [23] of over 10000 nM and an IC50 [24] of over 10000 nM. The IC50 [25] was over 10000 nM, the IC50 [26] was over 10000 nM and the IC50 [27] was over 10000 nM. It also gave an IC50 [28] of over 10000 nM, an IC50 [29] of over 10000 nM and an IC50 [30] of over 10000 nM. For the same molecule, the IC50 [31] was over 10000 nM, the IC50 [32] was over 10000 nM and the IC50 [33] was 8050 nM. It also gave an IC50 [34] of over 10000 nM, an IC50 [35] of over 10000 nM and an IC50 [36] of over 10000 nM. The IC50 [37] was over 10000 nM, the IC50 [38] was over 10000 nM and the IC50 [39] was over 10000 nM. For the same molecule, the IC50 [40] was over 10000 nM, the IC50 [41] was over 10000 nM and the IC50 [42] was over 10000 nM. It also gave an IC50 [43] of over 10000 nM, an IC50 [44] of over 10000 nM and an IC50 [45] of over 10000 nM. The IC50 [46] was over 10000 nM.

In the case of `CO[C@H]1C[C@@H]2CC[C@@H](C)[C@@](O)(O2)C(=O)C(=O)N2CCCC[C@H]2C(=O)O[C@H]([C@H](C)C[C@@H]2CC[C@@H](OC(=O)C(C)(CO)CO)[C@H](OC)C2)CC(=O)[C@H](C)/C=C(\C)[C@@H](O)[C@@H](OC)C(=O)[C@H](C)C[C@H](C)/C=C/C=C/C=C/1C` [TEMSIROLIMUS], the IC50 [1] is reported as over 200 nM, the IC50 [2] is reported as 15.6 nM and the IC50 [3] is reported as over 200 nM. The IC50 [4] was over 200 nM, the IC50 [5] was 5.9 nM and the IC50 [47] was 11.7 nM. It also gave an IC50 [6] of over 200 nM, an IC50 [7] of over 200 nM and an IC50 [8] of over 200 nM. The IC50 [9] was over 200 nM, the IC50 [10] was 13.3 nM and the IC50 [11] was over 200 nM. The IC50 [12] was over 200 nM, the IC50 [13] was over 200 nM and the IC50 [14] was 18.9 nM. The IC50 [15] was 13 nM, the IC50 [16] was over 200 nM and the IC50 [17] was over 200 nM. For the same molecule, the IC50 [18] was 39.3 nM, the IC50 [19] was over 200 nM and the IC50 [20] was 63.6 nM. It also gave an IC50 [21] of over 200 nM, an IC50 [22] of 198 nM and an IC50 [23] of 141 nM. The IC50 [24] was 0.495 nM, the IC50 [25] was 161 nM and the IC50 [26] was over 200 nM. It also gave an IC50 [27] of over 200 nM, an IC50 [28] of over 200 nM and an IC50 [29] of 20.7 nM. For the same molecule, the IC50 [30] was over 200 nM, the IC50 [31] was over 200 nM and the IC50 [32] was 63.5 nM. The IC50 [33] was over 200 nM, the IC50 [34] was 159 nM and the IC50 [35] was 1.49 nM. It also gave an IC50 [36] of 54.2 nM, an IC50 [37] of over 200 nM and an IC50 [38] of 8.45 nM. It also gave an IC50 [39] of 189 nM, an IC50 [40] of over 200 nM and an IC50 [41] of over 200 nM. For the same molecule, the IC50 [42] was over 200 nM, the IC50 [43] was 1.7 nM and the IC50 [44] was 60.1 nM. The IC50 [45] was 88.2 nM and the IC50 [46] was 4.31 nM.
